The source made the active and inactive calls.
Experiments:
[1] = target: T1, Short transient receptor potential channel 4 (Mus musculus, UniProt Q9QUQ5); assay: block of DAMGO-driven TRPC4 calcium entry – cell-based, HEK293 TRPC4/mu-opioid, Fluo-4 calcium, dose response (AID 434942); format: functional;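 also: potency of inhibitors blocking the TRPC4 calcium response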
T1 sequence (Q9QUQ5 whole entry): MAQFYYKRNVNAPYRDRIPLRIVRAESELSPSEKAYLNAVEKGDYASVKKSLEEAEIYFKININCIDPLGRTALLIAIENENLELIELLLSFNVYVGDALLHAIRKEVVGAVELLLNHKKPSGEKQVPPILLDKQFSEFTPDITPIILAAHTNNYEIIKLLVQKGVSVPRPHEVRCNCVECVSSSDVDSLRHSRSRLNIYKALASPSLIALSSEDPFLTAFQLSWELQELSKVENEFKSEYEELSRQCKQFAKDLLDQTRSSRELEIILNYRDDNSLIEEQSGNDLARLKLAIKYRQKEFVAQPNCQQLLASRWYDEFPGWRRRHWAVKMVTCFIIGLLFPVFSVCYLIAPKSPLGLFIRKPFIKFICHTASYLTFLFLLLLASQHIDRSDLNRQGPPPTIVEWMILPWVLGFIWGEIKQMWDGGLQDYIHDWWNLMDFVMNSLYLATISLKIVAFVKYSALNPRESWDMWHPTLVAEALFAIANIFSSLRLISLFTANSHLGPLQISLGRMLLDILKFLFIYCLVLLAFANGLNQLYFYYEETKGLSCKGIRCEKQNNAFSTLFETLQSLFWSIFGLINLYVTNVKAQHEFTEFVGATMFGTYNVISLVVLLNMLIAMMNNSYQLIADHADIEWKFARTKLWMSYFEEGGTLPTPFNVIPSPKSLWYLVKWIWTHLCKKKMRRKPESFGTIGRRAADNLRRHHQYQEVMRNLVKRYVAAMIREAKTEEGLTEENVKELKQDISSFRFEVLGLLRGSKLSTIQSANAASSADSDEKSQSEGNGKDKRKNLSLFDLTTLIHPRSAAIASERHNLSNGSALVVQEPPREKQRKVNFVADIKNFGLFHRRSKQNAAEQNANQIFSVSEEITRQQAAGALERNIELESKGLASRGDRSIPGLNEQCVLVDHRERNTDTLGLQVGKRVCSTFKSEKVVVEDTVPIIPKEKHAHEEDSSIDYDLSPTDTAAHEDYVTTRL

Fatty acid synthase [2] = target: T2, Fatty acid synthase (Homo sapiens, UniProt P49327); assay: inhibition of human FAS-TE enzyme activity – biochemical, kinetic fluorescence intensity, dose response (AID 624326); format: functional;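 also: rate of fluorescence rise from hydrolysis of a fluorogenic O-methyl fluorescein ester substrate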
Fatty acid synthase [3] = target: T2, Fatty acid synthase; assay: inhibition of human FAS-TE enzyme activity – biochemical, endpoint fluorescence intensity, uHTS hits, dose response (AID 624327); format: functional;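 also: fluorescence from hydrolysis of an O-methyl fluorescein acyl ester substrate by the enzyme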
[4] = target: T3, Corticotropin-releasing factor receptor 2/Corticotropin-releasing factor-binding protein (Homo sapiens, UniProt P24387+Q13324); assay: Dose Response confirmation of uHTS hits for small molecule antagonists of the CRF-binding protein and CRF-R2 receptor complex.; format: functional; settings: read-out: IC50_Mean
T3 sequence (Q13324 whole entry): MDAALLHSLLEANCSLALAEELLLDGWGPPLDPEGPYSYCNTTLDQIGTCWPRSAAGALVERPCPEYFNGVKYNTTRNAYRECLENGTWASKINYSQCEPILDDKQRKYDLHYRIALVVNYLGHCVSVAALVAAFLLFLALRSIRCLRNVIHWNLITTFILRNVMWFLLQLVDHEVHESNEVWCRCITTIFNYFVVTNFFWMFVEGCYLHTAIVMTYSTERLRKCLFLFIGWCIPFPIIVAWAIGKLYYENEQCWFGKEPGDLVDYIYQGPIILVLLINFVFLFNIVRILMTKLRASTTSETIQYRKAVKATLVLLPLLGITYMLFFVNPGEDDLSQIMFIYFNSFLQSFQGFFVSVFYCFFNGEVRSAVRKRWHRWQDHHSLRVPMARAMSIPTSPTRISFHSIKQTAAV
T3 sequence (P24387 whole entry): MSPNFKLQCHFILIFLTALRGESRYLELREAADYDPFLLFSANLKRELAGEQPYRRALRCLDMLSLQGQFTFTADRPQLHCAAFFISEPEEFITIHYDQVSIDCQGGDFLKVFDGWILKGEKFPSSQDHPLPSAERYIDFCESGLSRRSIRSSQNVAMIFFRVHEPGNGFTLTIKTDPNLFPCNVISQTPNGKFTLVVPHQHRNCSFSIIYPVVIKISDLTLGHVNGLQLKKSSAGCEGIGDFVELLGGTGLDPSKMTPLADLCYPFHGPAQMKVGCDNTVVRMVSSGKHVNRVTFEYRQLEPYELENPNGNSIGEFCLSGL

[5] = target: T3, Corticotropin-releasing factor receptor 2/Corticotropin-releasing factor-binding protein; assay: activators of CRF receptor 2 with binding protein – uHTS hits, confirmation (AID 602473); format: functional; settings: read-out: EC50_Mean
[6] = target: Voltage-dependent T-type calcium channel subunit alpha-1H (Homo sapiens, UniProt O95180); format: functional;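 also: channel activity triggered by adding a high calcium stimulation buffer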
Streptococcus = assay: GAS UMAA2166 growth inhibition – luminescence, BacTiterGlo, counter-screen for streptokinase expression inhibitor project, dose response (AID 1915); format: functional, organism-based;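 also: potency for reduction of bacterial viability or growth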
[7] = test system: Streptococcus sp. 'group A'; assay: Streptococcus pyogenes SK(-)GAS viability under kanamycin – luminescence, BacTiterGlo, confirmation, counter-screen for streptokinase expression inhibitor project, dose response (AID 1900); format: functional, organism-based
[8] = target: T4, DNA repair protein RAD52 homolog (Homo sapiens, UniProt P43351); format: functional, biochemical
T4 sequence (P43351 whole entry): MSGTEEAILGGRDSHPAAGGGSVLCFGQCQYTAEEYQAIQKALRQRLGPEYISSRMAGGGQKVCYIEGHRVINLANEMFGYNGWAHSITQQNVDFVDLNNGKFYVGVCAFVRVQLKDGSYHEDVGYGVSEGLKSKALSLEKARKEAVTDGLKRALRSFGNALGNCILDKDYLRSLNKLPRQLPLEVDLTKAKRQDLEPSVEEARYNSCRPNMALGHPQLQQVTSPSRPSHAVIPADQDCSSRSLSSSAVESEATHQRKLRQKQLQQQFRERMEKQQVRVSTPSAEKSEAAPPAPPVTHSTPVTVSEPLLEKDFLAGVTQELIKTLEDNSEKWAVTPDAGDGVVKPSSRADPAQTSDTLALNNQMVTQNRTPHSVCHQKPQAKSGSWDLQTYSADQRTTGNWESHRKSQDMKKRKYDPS

Streptokinase A = target: T5, Streptokinase A (Streptococcus pyogenes serotype M1, UniProt P10520); assay: viability-normalized secreted streptokinase activity reduction – plasminogen activation absorbance, OD405, dose response (AID 1914); format: functional, Streptococcus pyogenes M1 GAS;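 also: secreted streptokinase activity via plasminogen activation per viability signal from cell pellet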
T5 sequence (P10520 whole entry): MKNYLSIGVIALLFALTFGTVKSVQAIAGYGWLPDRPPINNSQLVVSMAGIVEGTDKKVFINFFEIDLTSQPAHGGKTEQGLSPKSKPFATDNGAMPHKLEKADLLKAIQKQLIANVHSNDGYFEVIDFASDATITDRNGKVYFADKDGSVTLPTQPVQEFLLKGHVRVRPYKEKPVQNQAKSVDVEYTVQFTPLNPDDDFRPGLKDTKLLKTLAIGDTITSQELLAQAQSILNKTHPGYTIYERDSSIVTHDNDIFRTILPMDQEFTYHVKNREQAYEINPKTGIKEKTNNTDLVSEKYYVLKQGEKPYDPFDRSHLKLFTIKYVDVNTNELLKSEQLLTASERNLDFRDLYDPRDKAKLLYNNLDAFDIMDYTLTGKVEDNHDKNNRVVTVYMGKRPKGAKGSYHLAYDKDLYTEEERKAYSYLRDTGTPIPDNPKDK

H4 = assay: Luminescence Cell-Based Dose Response HTS to Identify Activators of 5'UTR Stem-Loop Driven Prion Protein mRNA Translation in H4 Neuroglioblastoma Cells. [Related pubchem assays: 1829 (Project Summary), 1814 (Primary HTS)]; format: functional; settings: Homo sapiens
[9] = target: Induced myeloid leukemia cell differentiation protein Mcl-1 (Homo sapiens, UniProt Q07820); format: functional
[10] = Luminescence Cell-Based Dose Confirmation HTS to Identify Activators of 5'UTR Stem-Loop Driven Alpha-Synuclein mRNA Translation in H4 Neuroglioblastoma Cells. [Related pubchem assays: 1829 (Project Summary), 1814 (Primary HTS)]; format: functional
[11] = Luminescence Cell-Based Dose Response HTS to Identify Activators of Luciferase Translation or Activity in H4 […] Cells. [Related pubchem assays: 1829 (Project Summary), 1814 (Primary HTS)]; format: functional
[12] = target: T6, Heat shock factor protein 1 (Mus musculus, UniProt P38532); assay: decrease of HSF1-responsive luciferase luminescence – cell-based, NIH3T3, dose retest, confirmation (AID 2382); format: functional;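 also: NIH3T3 fibroblasts with HSF1-driven luciferase reporter stressed by proteasome inhibitor MG132; luminescence from HSF1-driven luciferase expression after 8 hours of MG132 stress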
T6 sequence (P38532 whole entry): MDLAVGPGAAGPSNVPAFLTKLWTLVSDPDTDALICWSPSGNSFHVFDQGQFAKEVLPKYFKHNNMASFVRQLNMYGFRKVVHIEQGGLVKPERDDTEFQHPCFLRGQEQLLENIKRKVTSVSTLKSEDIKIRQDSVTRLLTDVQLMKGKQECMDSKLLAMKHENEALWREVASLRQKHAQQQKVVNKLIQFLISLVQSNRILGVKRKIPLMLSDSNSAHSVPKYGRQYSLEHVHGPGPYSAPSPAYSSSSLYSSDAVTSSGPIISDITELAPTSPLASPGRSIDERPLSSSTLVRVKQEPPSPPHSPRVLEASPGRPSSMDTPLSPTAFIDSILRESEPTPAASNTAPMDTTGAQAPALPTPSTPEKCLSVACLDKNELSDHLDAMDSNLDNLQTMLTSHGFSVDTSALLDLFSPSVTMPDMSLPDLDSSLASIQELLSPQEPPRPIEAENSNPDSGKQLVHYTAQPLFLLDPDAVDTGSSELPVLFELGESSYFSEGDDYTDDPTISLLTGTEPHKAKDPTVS

[13] = target: T7, Microphthalmia-associated transcription factor (Homo sapiens, UniProt O75030); assay: reducers of TRPM1 reporter luminescence, concentration series – cell-based, SK-MEL-5, cherry-picked, set 3, MITF inhibitor project, dose response (AID 493073); format: functional;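 also: SK-MEL-5 melanoma cells with luciferase driven by the MITF target TRPM1 promoter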
T7 sequence (O75030 whole entry): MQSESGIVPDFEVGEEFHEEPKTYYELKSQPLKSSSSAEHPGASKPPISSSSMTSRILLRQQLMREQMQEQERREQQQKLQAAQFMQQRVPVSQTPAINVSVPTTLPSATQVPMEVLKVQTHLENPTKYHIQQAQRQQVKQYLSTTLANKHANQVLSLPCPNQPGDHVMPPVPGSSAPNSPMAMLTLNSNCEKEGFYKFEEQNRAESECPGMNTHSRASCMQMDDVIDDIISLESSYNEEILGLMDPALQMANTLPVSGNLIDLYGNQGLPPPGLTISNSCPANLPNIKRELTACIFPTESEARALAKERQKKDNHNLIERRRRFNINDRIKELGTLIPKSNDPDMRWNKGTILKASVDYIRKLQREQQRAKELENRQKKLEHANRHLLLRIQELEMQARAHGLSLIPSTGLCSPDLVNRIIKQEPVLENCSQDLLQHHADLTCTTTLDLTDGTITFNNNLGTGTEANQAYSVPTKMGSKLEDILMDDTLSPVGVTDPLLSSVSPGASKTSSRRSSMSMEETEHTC

[14] = viability of uninfected HEp-2 cells – cell-based, HTS, cytotoxicity control for RSV inhibitor project, dose response (AID 2410); format: functional; settings: human respiratory syncytial virus

Voltage-dependent T-type calcium channel subunit alpha-1H, sequence (O95180 whole entry): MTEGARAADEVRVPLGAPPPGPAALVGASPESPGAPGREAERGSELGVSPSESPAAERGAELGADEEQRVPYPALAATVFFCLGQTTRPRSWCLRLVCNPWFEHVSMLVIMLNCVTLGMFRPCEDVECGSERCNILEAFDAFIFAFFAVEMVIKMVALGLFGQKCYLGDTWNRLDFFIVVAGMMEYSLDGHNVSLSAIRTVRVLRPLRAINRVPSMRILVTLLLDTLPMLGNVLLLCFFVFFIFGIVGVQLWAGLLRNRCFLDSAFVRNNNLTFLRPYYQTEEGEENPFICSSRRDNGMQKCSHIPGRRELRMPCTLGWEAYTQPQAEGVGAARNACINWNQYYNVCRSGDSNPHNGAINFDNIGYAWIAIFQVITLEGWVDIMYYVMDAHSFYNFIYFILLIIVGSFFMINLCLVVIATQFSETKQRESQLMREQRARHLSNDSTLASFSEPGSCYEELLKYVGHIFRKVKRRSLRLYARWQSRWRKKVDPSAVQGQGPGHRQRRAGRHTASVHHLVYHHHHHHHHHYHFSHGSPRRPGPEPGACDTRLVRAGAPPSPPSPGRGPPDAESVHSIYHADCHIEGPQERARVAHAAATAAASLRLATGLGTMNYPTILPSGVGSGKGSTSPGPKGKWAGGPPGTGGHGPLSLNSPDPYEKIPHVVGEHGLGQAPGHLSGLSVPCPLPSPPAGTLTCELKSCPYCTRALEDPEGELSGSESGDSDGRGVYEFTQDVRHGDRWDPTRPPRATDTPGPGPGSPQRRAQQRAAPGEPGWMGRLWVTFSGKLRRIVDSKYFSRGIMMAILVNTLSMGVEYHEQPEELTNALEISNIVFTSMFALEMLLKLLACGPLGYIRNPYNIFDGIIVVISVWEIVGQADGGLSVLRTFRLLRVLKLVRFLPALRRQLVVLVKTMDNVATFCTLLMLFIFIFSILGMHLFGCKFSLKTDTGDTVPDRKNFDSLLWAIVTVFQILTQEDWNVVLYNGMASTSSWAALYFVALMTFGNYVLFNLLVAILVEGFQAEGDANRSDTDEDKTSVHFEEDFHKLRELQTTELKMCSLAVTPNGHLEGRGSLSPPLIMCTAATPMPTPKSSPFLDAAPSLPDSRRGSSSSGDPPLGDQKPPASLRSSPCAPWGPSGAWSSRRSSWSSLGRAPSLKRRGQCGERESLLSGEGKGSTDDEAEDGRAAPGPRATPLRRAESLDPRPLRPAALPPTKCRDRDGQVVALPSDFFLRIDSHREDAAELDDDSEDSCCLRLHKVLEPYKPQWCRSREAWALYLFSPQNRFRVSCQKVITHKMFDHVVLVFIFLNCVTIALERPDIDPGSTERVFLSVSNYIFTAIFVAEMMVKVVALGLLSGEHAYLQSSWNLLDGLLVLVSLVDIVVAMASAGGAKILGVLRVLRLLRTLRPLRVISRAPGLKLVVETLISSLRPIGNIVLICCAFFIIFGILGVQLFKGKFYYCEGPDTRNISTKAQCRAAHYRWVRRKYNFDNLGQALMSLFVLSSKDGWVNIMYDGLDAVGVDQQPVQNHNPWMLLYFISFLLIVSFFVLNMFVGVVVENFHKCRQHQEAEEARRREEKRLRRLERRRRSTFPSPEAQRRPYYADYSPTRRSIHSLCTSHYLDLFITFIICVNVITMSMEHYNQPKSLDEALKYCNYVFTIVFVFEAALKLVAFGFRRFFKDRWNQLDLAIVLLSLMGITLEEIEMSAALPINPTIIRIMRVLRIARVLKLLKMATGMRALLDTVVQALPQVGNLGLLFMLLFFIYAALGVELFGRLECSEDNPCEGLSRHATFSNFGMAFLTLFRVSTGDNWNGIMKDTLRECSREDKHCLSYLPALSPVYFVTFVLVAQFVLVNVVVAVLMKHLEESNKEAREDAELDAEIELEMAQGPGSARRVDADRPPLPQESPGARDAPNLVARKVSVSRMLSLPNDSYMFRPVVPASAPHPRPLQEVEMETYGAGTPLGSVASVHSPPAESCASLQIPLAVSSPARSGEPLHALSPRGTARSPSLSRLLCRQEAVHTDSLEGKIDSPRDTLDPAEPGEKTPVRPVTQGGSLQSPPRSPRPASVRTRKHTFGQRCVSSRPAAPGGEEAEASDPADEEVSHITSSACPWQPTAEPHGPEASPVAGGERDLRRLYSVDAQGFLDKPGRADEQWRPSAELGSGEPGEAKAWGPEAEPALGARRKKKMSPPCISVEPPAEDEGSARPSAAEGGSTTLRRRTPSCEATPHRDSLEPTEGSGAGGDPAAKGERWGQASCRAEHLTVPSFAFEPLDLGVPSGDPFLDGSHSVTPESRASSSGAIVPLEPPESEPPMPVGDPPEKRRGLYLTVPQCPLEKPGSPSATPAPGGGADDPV
Induced myeloid leukemia cell differentiation protein Mcl-1, sequence (Q07820 whole entry): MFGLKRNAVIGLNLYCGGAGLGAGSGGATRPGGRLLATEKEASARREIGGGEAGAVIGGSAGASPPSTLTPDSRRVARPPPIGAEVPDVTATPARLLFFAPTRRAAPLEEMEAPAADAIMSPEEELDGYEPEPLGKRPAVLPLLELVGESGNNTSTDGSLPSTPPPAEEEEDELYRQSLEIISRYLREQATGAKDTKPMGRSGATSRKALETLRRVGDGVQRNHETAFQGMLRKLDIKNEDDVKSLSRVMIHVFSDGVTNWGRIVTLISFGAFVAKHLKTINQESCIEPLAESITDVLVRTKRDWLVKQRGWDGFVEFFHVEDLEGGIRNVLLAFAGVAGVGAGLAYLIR

Structure (SMILES): N=c1n(CCO)c2ccccc2n1Cc1ccc(Cl)cc1
- EC50 [1]: 3.35 µM (active)

Structure (SMILES): Cn1c(=O)c2cc3c(nc2n(C)c1=O)CC(c1ccccc1)CC3=O (stereo not drawn)
- IC50 (Fatty acid synthase [2]): 14.5 µM (active)
- IC50 (Fatty acid synthase [3]): 10.5 µM (active)
- IC50 [4]: > 47.1 µM (inactive)
- EC50 [5]: > 53 µM (inactive)

Structure (SMILES): S=C(NCc1ccco1)N1CCN(Cc2ccc(Cl)cc2Cl)CC1
- EC50 [6]: 4.2 µM (active)

Structure (SMILES): Cc1[nH]c2ccc(C(=O)OC(C)C(=O)N(C)c3ccccc3)cc2c1C (stereo not drawn)
- EC50 [1]: 0.749 µM (active)

Structure (SMILES): CCCCCCCCCCCCOC(=O)C[N+](C)(C)C
- EC50 (Streptococcus): 10.6 µM (active)
- EC50 [7]: 3.32 µM (active)
- EC50 [1]: 2.99 µM (active)
- AC50 [8]: 26.4 µM (active)
- EC50 (Streptokinase A): 20.7 µM (active)

Structure (SMILES): COc1cc(C(=O)N(CCc2ccccc2)C2=CC3CCC(C2)N3C)cc(OC)c1OC (stereo not drawn)
- EC50 [1]: 0.335 µM (active)

Structure (SMILES): O=C(CSCc1cnn(-c2ccccc2)c1-n1cccc1)NCc1ccc2c(c1)OCO2
- EC50 [6]: 2.98 µM (active)

Structure (SMILES): N#C/C(=C(/O)c1ccc(-c2cccc([N+](=O)[O-])c2)o1)c1nc2ccccc2s1
- EC50 (H4): > 120 µM (not active)
- IC50 [9]: 5.38 µM (active)
- EC50 [10]: > 120 µM (not active)
- EC50 [11]: 9.39 µM (active)

Structure (SMILES): COc1ccc(N2CCN(C(=O)CCc3nc(-c4ccc(C)cc4)no3)CC2)cc1
- EC50 [6]: 2.1 µM (active)

Structure (SMILES): CCn1nccc1C(=O)Nc1cc(Cl)cc(Cl)c1
- EC50 [6]: 7.54 µM (active)

Structure (SMILES): O=C(CSc1nc2ccccc2[nH]1)Nc1ccc(F)c(F)c1
- EC50 [6]: 6.59 µM (active)
- EC50 [12]: > 195 µM (not active)

Structure (SMILES): CCC(C)(C)n1nnnc1C(c1ccc(O)c(OC)c1)N1CCc2ccccc2C1 (stereo not drawn)
- IC50 [9]: 6.3 µM (active)

Structure (SMILES): CC(C)n1c(O)c(C2c3cc(Cl)ccc3Oc3[nH]c(=O)n(C(C)C)c(=O)c32)c(=O)[nH]c1=O (stereo not drawn)
- AC50 [13]: 5.39 µM (active)

Structure (SMILES): Nc1cc2c(cc1[N+](=O)[O-])OCO2
- IC50 [9]: 5.21 µM (active)

Structure (SMILES): Cc1cc(Nc2ccc(C)c(C)c2)c2ccccc2n1
- CC50 [14]: 26.1 µM (active)
- EC50 [1]: 2.11 µM (active)

Structure (SMILES): Cc1cccc(OCC(=O)Nc2ccccc2N2CCN(C(=O)C(C)C)CC2)c1C
- EC50 [6]: 2.13 µM (active)

Reference: ChEMBL document CHEMBL1201862, “PubChem BioAssay data set” (2004)
